Structures can show the parent of a compound that is named as a salt.
Legend:
IL-1β in serum = IL-1β in serum of rat with arthritis induced by type II collagen (ELISA); type: in vivo; conditions: Dose 100 mg · kg^−1 × 13 d, orally
Experimental: 0.1 ml of type II H collagen (2 mg·ml^−1) was intracutaneously injected into the hind foot of Wistar rat (male, 100±10 g) (d0). Seven days later 0.1 ml of type II collagen was intracutaneously injected into the root of tail. […] […] The perimeter of the ankle joint of two hind feet, weight of body was measured and the systemic inflammation (including the toes of front and hind feet, ears and tails) was judged by scoring every 3 days. At 41th day 40 μl of 0.2% type II collagen was intracutaneously injected into the right ear. Twenty-four hr later the edema level was evaluated by weighing the ponderance of ear piece (diameter: 8 mm). At 42th day the blood was collected by decapitating. The serum was separated by centrifugating. The contents of antibody for anti-type II collagen, cytokine TNF-α, IL-1β in serum were determined by ELISA kit.

[1] = test system: mouse paw swelling induced by carrageenan; test: mouse paw swelling induced by carrageenan; type: in vivo; conditions: orally, 50 mg·kg^−1, Kunming mice
Experimental: Kunming mice (male, 18-22 g) were randomly divided into two groups (treatment and control) with 10 animals for each group. The animals were orally administrated with compounds or solvent, respectively. 1 hr later, 50 μl of 1% carrageenan was intracutaneously injected into the sole of right posterior foot. After 4 hr the animals were sacrificed by displacing cervical vertebra. The two paws were cut off at ankle joint and weighed. The swelling was evaluated by the difference of the weights of two paws.

[2] = test system: rat granuloma induced by cotton ball; test: rat granuloma induced by cotton ball; type: in vivo; conditions: orally, 100 mg·kg^−1, 7 days, Wistar rats
Experimental: Wistar rats (male, 165±15 g) were randomly divided into two groups (treatment and control) with 10 animals for each group. 10 mg of steriled cotton ball was planted into the two groins of the rat under the anaesthetized by ether. The animals were orally administrated with the compound for 7 days. At seventh day the cotton ball was taken out, dried by the oven and weighed. The hyperplasia of granuloma was evaluated by the increase of weight of dried cotton ball.

[3] = test system: mouse ear edema induced by croton oil; test: mouse ear edema induced by croton oil; type: in vivo; conditions: orally, 50 mg·kg^−1, Kunming mice
[4] = test system: cutaneous vascular permeability in mice induced by PAF; test: increase of cutaneous vascular permeability in mice induced by PAF; type: in vivo, mouse; conditions: orally, 50 mg·kg^−1, Kunming mice
TNF-α in serum = TNF-α in serum of rat with arthritis induced by type II collagen (ELISA); type: in vivo; conditions: Dose 100 mg · kg^−1 × 13 d, orally
Experimental: 0.1 ml of type II H collagen (2 mg·ml^−1) was intracutaneously injected into the hind foot of Wistar rat (male, 100±10 g) (d0). Seven days later 0.1 ml of type II collagen was intracutaneously injected into the root of tail. At 19th day (d19) the animals inflamed were selected to supply the experiment and randomly divided into two groups. […] The perimeter of the ankle joint of two hind feet, weight of body was measured and the systemic inflammation (including the toes of front and hind feet, ears and tails) was judged by scoring every 3 days. At 41th day 40 μl of 0.2% type II collagen was intracutaneously injected into the right ear. Twenty-four hr later the edema level was evaluated by weighing the ponderance of ear piece (diameter: 8 mm). At 42th day the blood was collected by decapitating. The serum was separated by centrifugating. The contents of antibody for anti-type II collagen, cytokine TNF-α, IL-1β in serum were determined by ELISA kit.

[5] = target: T1, PAF receptors of macrophages from mouse peritoneal cavity (Mus musculus, UniProt Q62035); test: competitive binding of [3H]-PAF to its receptors of macrophages from mouse peritoneal cavity; conditions: 4° C, 150 min, read-out: Ki, competition with [3H]-PAF binding
T1 construct: The cells in peritoneal cavity were collected after injection for 3-4 days; endogenous in cells; host or cells: adherent peritoneal macrophages of C57BL/6 mice (primary)
Experimental: 4% of sodium mercaptoethanol was injected into C57BL/6 mouse peritoneal cavity to induce macrophages. The cells in peritoneal cavity were collected after injection for 3-4 days. 500 μl of suspension (5×10^5cells·ml^−1) was inoculated into 24-well culture plate which was placed into the incubator with 5% CO2 at 37° C for 2.5 hr. The non-adherent cells and serum in media were discarded. 490 μl of Tyrode-Hepes solution and 5 μl of [^3H]-PAF (final concentration: 2.8 nmol·L^−1) were added into each well. 5 μl of unlabeled PAF (5 μmol·L^1) was added into the well for the nonspecific binding. The series concentrations of compound were added into the well for the competitive binding and the corresponding volume of solvent was added into the wells for the total binding or the nonspecific binding. The reaction fluid was incubated at 4° C for 150 min and rinsed to wipe off the free labeled ligand. 300 μl of NaOH (0.3 mol·L^−1) was added to lyse the cells. The lysate fluid was transferred into a vial in which 7 ml of scintillation solution was added. The radioactivity strength was measured by scintillation counter.

[6] = test system: production of NO in macrophages from mouse peritoneal cavity; test: production of NO in macrophages from mouse peritoneal cavity (LPS and PAF); type: cell-based; conditions: Macrophage, costimulated by LPS (1×10^−9 mol·L^−1) and PAF (1×10^−6 mol·L^−1), 24 hr, read-out: IC50, inhibition of the production of NO
Experimental: 4% of sodium mercaptoethanol was injected into C57BL/6 mouse peritoneal cavity to induce macrophages. The cells in peritoneal cavity were collected after injection for 3-4 days. 500 μl of cells were inoculated in the well of 24 wells plate which was placed in the CO2 incubator at 37° C. for 2.5 hr to make the cells adherent. The cells were rinsed by 1640 culture media. 495 μl of 1640 media containing irritant and 5 μl the compound or solvent were added into each well. The plate was incubated for 24 hr. The supernatant was taken out and mixed with the same volume of Griess agent. The reaction fluid was kept at room temperature for 10 min and the optical density was measured at 550 nm. The numbers read was transferred into the content of NO.

T1 sequence (Q62035 whole entry): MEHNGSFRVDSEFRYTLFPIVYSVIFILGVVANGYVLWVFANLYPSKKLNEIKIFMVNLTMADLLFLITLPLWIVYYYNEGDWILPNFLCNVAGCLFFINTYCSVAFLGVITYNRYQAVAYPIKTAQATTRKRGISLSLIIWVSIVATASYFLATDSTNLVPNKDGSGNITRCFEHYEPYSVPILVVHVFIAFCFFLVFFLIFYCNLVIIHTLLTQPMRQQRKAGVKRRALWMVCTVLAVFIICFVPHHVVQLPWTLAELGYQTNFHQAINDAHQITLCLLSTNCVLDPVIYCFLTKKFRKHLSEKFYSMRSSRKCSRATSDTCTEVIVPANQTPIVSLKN

- Ki [5]: 4400 nM
- IC50 [6]: 225 nM
SMILES: CCOC(=O)C1CCN(CCC(=O)/C=C/c2ccc(Cl)cc2)CC1 [Compound 3, 5-[(4-Ethoxycarbonyl)piperidyl]-1-(4-chlorophenyl)-1-penten-3-one hydrochloride]
- Inhibition (%) of production of IL-1β in serum (IL-1β in serum): 45.7%
- Inhibition (%) of mouse paw swelling [1]: 32.52%
- Inhibition (%) of rat granuloma [2]: 37.93%
- Inhibition (%) of mouse ear edema [3]: 33.52%
- Inhibition (%) of increase of cutaneous vascular permeability [4]: 53.23%
- inhibition (%) of production of TNF-α in serum (TNF-α in serum): 49.3%

From patent US8524744B2, “Arylamine ketones, their preparation methods, the pharmaceutical composition containing them and their use” (Institute of Mataria Medica, Chinese Academy of Medical …, priority 2004, dated 2013)
